Laboratory results published in the supplement of paper PMC10307832.

Legend:
Experiment in all cases: relative viability (nuclei count vs DMSO), 5 days (fraction); higher = more cells survive
Dinaciclib + Foretinib = compound: CCc1cnn2c(NCc3ccc[n+]([O-])c3)cc(N3CCCC[C@H]3CCO)nc12 [Dinaciclib] + COc1cc2c(Oc3ccc(NC(=O)C4(C(=O)Nc5ccc(F)cc5)CC4)cc3F)ccnc2cc1OCCCN1CCOCC1 [Foretinib] (partner 0.25 µM)
Outline: (§1)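 Each reported value is a median over duplicate plates. It expresses relative viability: treated-well nuclei count divided by vehicle-well nuclei count. Lung cancer cell lines in 1536-well plates were dosed by pin tool a day after seeding, alone with one drug or with a fixed anchor-drug dose plus five library-drug doses (not always all listed) in √10 steps, and nuclei were counted after 5 days.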

Dinaciclib + Lapatinib = compound: CCc1cnn2c(NCc3ccc[n+]([O-])c3)cc(N3CCCC[C@H]3CCO)nc12 [Dinaciclib] + CS(=O)(=O)CCNCc1ccc(-c2ccc3ncnc(Nc4ccc(OCc5cccc(F)c5)c(Cl)c4)c3c2)o1 [Lapatinib] (partner 2 µM)
Outline: as §1

Dinaciclib + Dasatinib = compound: CCc1cnn2c(NCc3ccc[n+]([O-])c3)cc(N3CCCC[C@H]3CCO)nc12 [Dinaciclib] + Cc1nc(Nc2ncc(C(=O)Nc3c(C)cccc3Cl)s2)cc(N2CCN(CCO)CC2)n1 [Dasatinib] (partner 0.075 µM)
Outline: as §1

Dinaciclib + Navitoclax = compound: CCc1cnn2c(NCc3ccc[n+]([O-])c3)cc(N3CCCC[C@H]3CCO)nc12 [Dinaciclib] + CC1(C)CCC(c2ccc(Cl)cc2)=C(CN2CCN(c3ccc(C(=O)NS(=O)(=O)c4ccc(N[C@H](CCN5CCOCC5)CSc5ccccc5)c(S(=O)(=O)C(F)(F)F)c4)cc3)CC2)C1 [Navitoclax] (partner 0.5 µM)
Outline: as §1

Dinaciclib + Trametinib = compound: CCc1cnn2c(NCc3ccc[n+]([O-])c3)cc(N3CCCC[C@H]3CCO)nc12 [Dinaciclib] + CC(=O)Nc1cccc(-n2c(=O)n(C3CC3)c(=O)c3c(Nc4ccc(I)cc4F)n(C)c(=O)c(C)c32)c1 [Trametinib] (partner 0.02 µM)
Outline: as §1

Cell Line	relative viability (Dinaciclib + Foretinib; first compound 0.009487 µM)	relative viability (Dinaciclib + Foretinib; first compound 0.03 µM)	relative viability (Dinaciclib + Foretinib; first compound 0.09487 µM)	relative viability (Dinaciclib + Foretinib; first compound 0.3 µM)	relative viability (Dinaciclib + Lapatinib; first compound 0.009487 µM)	relative viability (Dinaciclib + Lapatinib; first compound 0.03 µM)	relative viability (Dinaciclib + Lapatinib; first compound 0.09487 µM)	relative viability (Dinaciclib + Lapatinib; first compound 0.3 µM)	relative viability (Dinaciclib + Dasatinib; first compound 0.009487 µM)	relative viability (Dinaciclib + Dasatinib; first compound 0.03 µM)	relative viability (Dinaciclib + Dasatinib; first compound 0.09487 µM)	relative viability (Dinaciclib + Dasatinib; first compound 0.3 µM)	relative viability (Dinaciclib + Navitoclax; first compound 0.009487 µM)	relative viability (Dinaciclib + Navitoclax; first compound 0.03 µM)	relative viability (Dinaciclib + Navitoclax; first compound 0.09487 µM)	relative viability (Dinaciclib + Navitoclax; first compound 0.3 µM)	relative viability (Dinaciclib + Trametinib; first compound 0.009487 µM)	relative viability (Dinaciclib + Trametinib; first compound 0.03 µM)	relative viability (Dinaciclib + Trametinib; first compound 0.09487 µM)	relative viability (Dinaciclib + Trametinib; first compound 0.3 µM)
NCI-H2023	0.948	0.0806	0.0663	0.0474	0.817	0.0669	0.0655	0.0585	0.393	0.0627	0.0546	0.0553	0.929	0.0702	0.0635	0.0619	0.382	0.078	0.0799	0.0821
NCI-H2085	1.16	0.259	0.194	0.241	0.712	0.238	0.249	0.26	0.223	0.184	0.218	0.229	1.14	0.201	0.154	0.172	0.439	0.259	0.187	0.183
NCI-H2087	0.93	0.118	0.0913	0.106	0.828	0.168	0.15	0.136	0.808	0.0939	0.0743	0.0752	0.729	0.0652	0.0695	0.0583	0.143	0.11	0.101	0.107
NCI-H2126	1.08	0.803	0.194	0.312	0.784	0.354	0.204	0.231	0.54	0.187	0.212	0.187	0.868	0.607	0.221	0.197	0.53	0.41	0.165	0.175
NCI-H2170	0.901	0.281	0.189	0.194	0.273	0.197	0.186	0.175	0.475	0.137	0.123	0.13	0.477	0.155	0.139	0.19	0.885	0.147	0.133	0.131
NCI-H2228	0.87	0.36	0.104	0.11	0.764	0.112	0.0806	0.11	0.399	0.106	0.0787	0.0912	0.882	0.174	0.0319	0.0438	0.496	0.11	0.0915	0.116
NCI-H2347	0.824	0.248	0.298	0.261	0.959	0.637	0.214	0.259	0.344	0.246	0.173	0.171	0.779	0.167	0.143	0.143	0.301	0.247	0.159	0.154
NCI-H2405	1.02	0.256	0.248	0.238	0.957	0.197	0.207	0.183	0.228	0.259	0.224	0.218	0.795	0.0802	0.0747	0.0589	0.676	0.236	0.233	0.203
